Reference: patent US11905522B2, “Treatment of diseases by liver expression of an enzyme which has a deoxyribonuclease (DNase) activity” (CLS THERAPEUTICS LIMITED, priority 2018, dated 2024)
Where two headings read alike, the source gives them in different places.

Experiments:
Circulating cfDNA = conditions: day 35; regimen per Table 3 (rhDNaseI protein 50 mg/kg, Group 6)
Experimental: SYBR® Gold Nucleic Acid Gel Stain (Invitrogen) was diluted first at 1:1000 in dimethyl sulphoxide and then at 1:8 in phosphate-buffered saline. 10 μl of plasma samples were applied to 96-well plates. 40 μl of diluted SYBR® Gold was added to each well (final dilution 1:10,000) and fluorescence was measured with a 96 well fluorometer at an emission wavelength of 535 nm and an excitation wavelength of 485 nm.

[1] = Serum DNase I activity (ORG590), MIA PaCa-2 model; assay type: in vivo, BALB/c nude mice; conditions: day 35, regimen per Table 3 (rhDNaseI protein 50 mg/kg, Group 6)
Experimental: Serum DNase I activity was measured using ORG590 (Orgentec) according to the manufacturer's protocol. Detection was performed using microplate photometer (Multiscan FC) at 450 nm with a correction wavelength of 620 nm. cfDNA in the liver tissue was quantified by immunohistochemistry (IHC) in liver paraffin slides using AC-30-10 mouse IgG DNA binding antibodies (Sigma) as primary antibodies and Novolink Polymer Detection Systems Novocastra (Leica Biosystems).

[2] = system: cfDNA in the liver tissue; assay: cfDNA in liver tissue by immunohistochemistry, MIA PaCa-2 model; assay type: in vivo, BALB/c nude mice; conditions: day 35; vector given with gemcitabine (Group 2); gemcitabine alone (Group 7)
Experimental: Detection was performed using microplate photometer (Multiscan FC) at 450 nm with a correction wavelength of 620 nm. cfDNA in the liver tissue was quantified by immunohistochemistry (IHC) in liver paraffin slides using AC-30-10 mouse IgG DNA binding antibodies (Sigma) as primary antibodies and Novolink Polymer Detection Systems Novocastra (Leica Biosystems).

MIA PaCa-2 xenografts = conditions: vector 1.00 × 10^11 GC/kg IV single dose (Groups 2, 3), Gemcitabine 60 mg/kg IP BIW
Experimental: 56 female BALB/c nude mice (IBCH RAN) of 6-8 weeks age and 18-22 g weight were used in experiment. The mice were kept in individual ventilation cages at controlled temperature and humidity with four animals in each cage. Each mouse was inoculated subcutaneously at the right flank with MIA PaCa-2 pancreatic tumor cells (1×10^7) in 0.2 ml of PBS supplemented with BD Matrigel (1:1) for tumor development. The treatments were started on day 17 after tumor inoculation when the average tumor size reached approximately 170 mm^3. Each group consisted of eight tumor-bearing mice.
Tumor size was measured twice weekly in two dimensions using a caliper, and the volume was expressed in mm^3 using the formula: V=0.5 a×b^2 where a and b are the long and short diameters of the tumor, respectively. At the time of routine monitoring, the animals were checked daily for any effects of tumor growth and treatments on normal behavior such as mobility, food and water consumption by visual inspection only, loss or gain of body weight (measured twice weekly), eye/hair matting, and any other abnormal effects. On day 35, the study was terminated, the mice were humanely sacrificed by CO2, and blood was sampled from the central and hepatic veins. Liver tissues were also sampled and immersed into formalin for fixing.

[3] = system: lung carcinoma and hepatoma metastatic disease; conditions: administered daily at 0.02-2.3 mg/kg; cited from earlier work
GVHD = conditions: mouse, in vivo; cited from earlier work
[4] = system: 16S universal bacterial RNA gene; assay: 16S universal bacterial RNA gene quantification in liver and brain, leaky gut rats; assay type: in vivo, Wistar rats; conditions: twice daily IV 50 mg/kg day 7 to day 12
[5] = DNase activity in blood, bacteriophage-induced leaky gut rats; assay type: in vivo, Wistar rats; conditions: twice daily IV 50 mg/kg day 7 to day 12
Experimental: At day 7 of phage treatment, rats were randomized into 4 groups as follows: six rats received intrahepatic injection of 1.0×10^12 LVP in a volume of 200 μl; six rats received injection of 1.0×10^12 LVP in a volume of 200 μl into a thigh muscle; six rats received twice daily intravenous injections of recombinant DNase I protein at 50 mg/kg between day 7 and day 12. The remaining six rats were used as the untreated leaky gut control. An additional six healthy rats were used as a healthy control. At day 12, all rats were sacrificed and blood samples were collected for measurement of the DNase activity in blood.
Serum DNase I activity was measured using ORG590 (Orgentec) according to the manufacturer's protocol. Detection was performed using microplate photometer (Multiscan FC) at 450 nm with a correction wavelength of 620 nm.

NLRP3 = assay: Brain NLRP3 inflammasome expression by RT-PCR, leaky gut rats; conditions: twice daily IV 50 mg/kg day 7 to day 12
Experimental: Leaky gut was induced in 24 rats using a bacteriophage cocktail against Enterobacteriaceae, Staphylococcaceae, and Streptococcaceae families so as to induce microbiota diseases. […] Phages (1.5 mL, 1×10^6 plaque-forming units/mL of each phage cocktail) were added to drinking water according to the manufacturer's instruction and administered orally for 10 days. At day 7 of phage treatment, rats were randomized into 4 groups as follows: six rats received intrahepatic injection of 1.0×10^12 LVP in a volume of 200 μl; six rats received injection of 1.0×10^12 LVP in a volume of 200 μl into a thigh muscle; six rats received twice daily intravenous injections of recombinant DNase I protein at 50 mg/kg between day 7 and day 12. The remaining six rats were used as the untreated leaky gut control. An additional six healthy rats were used as a healthy control. […] Brain autopsies were collected to perform NLRP3 inflammasome expression analysis and 16S universal bacterial RNA gene quantification.
NLRP3 expression was assessed by collection of 50 mg cortical tissue samples. RNA was isolated using the SV total RNA isolation system (Promega). Superscript III one-step RT-PCR system with platinum Taq DNA Polymerase (Invitrogen) was used for reverse transcriptase-PCR using 5′-[sequence]-3′ (SEQ ID NO: 11) as forward NLRP3 primer and 5′-[sequence]-3′ (SEQ ID NO: 12) as reverse NLRP3 primer. […]

With `Nc1ccn([C@@H]2O[C@H](CO)[C@@H](O)C2(F)F)c(=O)n1` [Gemcitabine] the “Cell free DNA in blood” value (Circulating cfDNA) was 241 ± 11 ng/mL, the “Dnase activity in blood” value ([1]; central vein) was 1.15 mKuU/ml and the “DNase activity in hepatic vein” value [1] was 1.05 mKuU/ml. For the same molecule, the “cfDNA in the liver (IHC microphotographs, FIG. 4)” value [2] was “A large amount of cfDNA”, the mean tumor volume (MIA PaCa-2 xenografts; Day 17) was 170 ± 13 mm^3 and the mean tumor volume (MIA PaCa-2 xenografts; Day 21) was 164 ± 14 mm^3. It also gave a mean tumor volume (MIA PaCa-2 xenografts; Day 24) of 197 ± 17 mm^3, a mean tumor volume (MIA PaCa-2 xenografts; Day 28) of 246 ± 10 mm^3 and a mean tumor volume (MIA PaCa-2 xenografts; Day 31) of 220 ± 8 mm^3. It also gave a mean tumor volume (MIA PaCa-2 xenografts; Day 35) of 264 ± 14 mm^3.

B1: RhDNase I: recombinant human DNase I in Patutina, 2011 (protein, UniProt P24855 23-282, looked up)
Deoxyribonuclease-1: LKIAAFNIQTFGETKMSNATLVSYIVQILSRYDIALVQEVRDSHLTAVGKLLDNLNQDAPDTYHYVVSEPLGRNSYKERYLFVYRPDQVSAVDSYYYDDGCEPCGNDTFNREPAIVRFFSRFTEVREFAIVPLHAAPGDAVAEIDALYDVYLDVQEKWGLEDVMLMGDFNAGCSYVRPSQWSSIRLWTSPTFQWLIPDSADTTATPTHCAYDRIVVAGMLLRGAVVPDSALPFNFQAAYGLSDQLAQAISDHYPVEVMLK
In the case of B1, the “suppressed the development of metastatic disease” value [3] is given as 60-90%.

B2: DNaseI: DNaseI used to treat GVHD in mice (Li, 2015) (protein, UniProt P24855 23-282, looked up)
Deoxyribonuclease-1: B1 Deoxyribonuclease-1
In the case of B2, the “treatment of GVHD in mice” value (GVHD) is given as “successful use”.

B3: DNase I protein (wt): recombinant wild-type DNase I protein injected IV in Example 7 (protein, UniProt P24855 23-282, looked up)
Deoxyribonuclease-1: B1 Deoxyribonuclease-1
In the case of B3, the “Average ΔCt values for universal bacterial 16S from RT-PCR, brain” value [4] is reported as 27.417, the “Average ΔCt values for universal bacterial 16S from RT-PCR, liver” value [4] is reported as 25.752 and the “Dnase activity in blood” value [5] is reported as 7.15 mKuU/ml. For the same molecule, the “Average ΔCt values for brain NLRP3 from RT-PCR” value (NLRP3) was 17.341.
